Patent US20250152580A1, “METHODS FOR TREATING IMMUNE DISEASES” (Ascentage Pharma (Suzhou) co., Ltd., priority 2022, published 2025)
Entries after “also recorded” stand apart in the source; their conditions may differ.

Columns and labels:
Format in all cases: in vivo
[1] = system: LPS inhalation induced lung neutrophils infiltration model; test: LPS inhalation induced neutrophils infiltration model in C57BL/6 mice; details: Cpd. 4 50 mg/kg oral each day, Cpd. X 50 mg/kg iv twice a week, Cpd. XI 12 mg/kg iv twice a week, week 4-10, compared with Vehicle
Description: C57BL/6 mice (6-8 weeks old) were obtained from Shanghai LC Laboratory Animal Co. Ltd. Animals, housed and handled in a temperature-controlled environment with a 12-h light/12-h dark cycle. A total of 60 female C57BL/6J mice will be modeled by atomization inhalation LPS 3 times a week for 10 weeks (adjustments may be made according to animal health status). LPS concentration is at 0.7 mg/mL. On each day of challenge, animals in G1 will receive aerosol inhalation of PBS and intravenous injection of Vehicle; animals in G2 will receive aerosol inhalation of LPS and intravenous injection of Vehicle; animals in G3 will be given aerosol inhalation of LPS and intravenous injection of 50 mg/kg Cpd. X twice a week (D1/4) from week 4-10; animals in G4 will be given aerosol inhalation of LPS and intravenous injection of 12 mg/kg Cpd.XI twice a week (D1/4) from week 4-10; animals in G5 will be given aerosol inhalation of LPS and oral administration of 50 mg/kg Cpd. 4 each day from week 4-10; animals in G6 will be given aerosol inhalation of LPS and oral administration of dexamethasone 1 hour before each challenge. Lungs will be gently lavaged via the tracheal cannula with 0.8 mL of PBS containing 1% BSA and 0.6 mM EDTA 48 hr after the last LPS exposure. The procedure will be repeated twice with 0.8 mL of PBS containing 1% BSA and 0.6 mM EDTA. The bronchoalveolar lavage fluid (BALF) will be centrifuged at 300×g for 5 min at 4° C., the cell pellet will be resuspended in 1.5 mL PBS. Total numbers of neutrophils in BALF will be counted using a hemocytometer.

OVA induced asthma model = test: OVA (ovalbumin) induced asthma model in Balb/cA mice
Description: Ovalbumin (OVA)-sensitized and challenged BALB/c mice are widely used as an asthma model and are characterized by high levels of serum IgE, airway inflammation, epithelial hypertrophy, goblet cell hyperplasia, and AHR, which are similar to the features observed in human allergic asthma.
Female Balb/cA mice (8 weeks old) were obtained from Shanghai Jihui Laboratory Animal Co. Ltd. Animals were housed and handled in a temperature-controlled environment with a 12-h light/12-h dark cycle. A total of 66 mice were assigned to 6 groups by randomization based on body weight.
Mice in Group 2 are intraperitoneally immunized with OVA (25 μg) emulsified in Imject alum (2.0 mg of Al[OH]3) on day 1. During this sensitization phase, the mice produce anti-OVA IgE antibodies, which bind IgE receptors on mast cells. After this sensitization, the mice are intratracheally challenged with OVA from day 8 today 14, resulting in OVA cross-linked IgE on mast cells and leading to degranulating mast cells. Mice then develop clinical features of asthma. The mice in the Group 1 normal control group were sensitized and challenged with […] (without OVA).
Mice in Group 1 and Group 2 were treated with vehicle for 7 days (po, qd, from day 8 to day 14). Mice in Group 3 were treated with 50 mg/kg Cpd. X for 8 days (iv, biw, day 1 and day 4). Mice in Group 4 were treated with 30 mg/kg Cpd. 4 for 7 days (po, qd, from day 8 to day 14). Mice in Group 5 were treated with 100 mg/kg Cpd. 4 for 7 days (po, qd, from day 8 to day 14). 3 mg/kg dexamethasone was used as positive control which was orally administered to mice in Group 6 for 7 days (qd, from day 8 to day 14). The protocols and procedures involving the care and use of animals were approved by the Institutional Animal Care and Use Committee (IACUC) at KCI (Suzhou, China).
Airway responsiveness was determined invasively based on lung resistance.
After challenge with aerosolized methacholine. Briefly, mice were challenged with methacholine aerosol in increasing concentrations (0, 6.25, 12.5, and 25 mg/mL in saline) on day 13 by using the noninvasive pulmonary function instrument. Data on lung resistance were continuously collected, and mean values were selected to express changes in airway function and regarded as one form of inflammation expression. Data are presented as the airway stenosis index (penh).
Twenty-four hours after the final OVA challenge (on day 15), mice were killed, and BAL cells were collected by means of slow injection of ice-cold PBS into the trachea, which was repeated 3 times. Numbers of cells in BAL fluid were counted with a chamber. Number of eosinophils in a total of 100 cells was counted under a microscope. Results are expressed as percentage of eosinophils of BAL fluid.
Twenty-four hours after the final OVA challenge (on day 15), mice were killed, and the serum was collected. The OVA-specific IgE levels were measured with the method of enzyme linked immunosorbent assay (ELISA) according to manufacturer protocol.
Twenty-four hours after the final OVA challenge (on day 15), mice were killed, and the lung tissue samples were collected and fixed in 4% paraformaldehyde. Then, they were embedded in paraffin and cut into […] sections for histopathological analysis. Lung sections were then stained with hematoxylin and eosin (H&E) to calculate the inflammatory changes. The histopathological score was evaluated microscopically in a blinded manner. Five arbitrarily selected fields of each mouse were photographed with an optical microscope and the images were determined and analyzed in detail. […]

[2] = system: TNBS induced inflammatory bowel disease (IBD) model; test: TNBS induced inflammatory bowel disease (IBD) model in Balb/c mice; details: 50 mg/kg po qd, mesalamine day −1 to day 6, compared with Vehicle
Description: There are two kinds of IBD: Crohn's disease (CD) and ulcerative colitis (UC). TNBS administration results in a preclinical mouse model replicating clinical Crohn's disease.
Female Balb/c mice (8 weeks old) were obtained from Beijing Vital River Laboratory Animal Co. Ltd. Animals were housed and handled in a temperature-controlled environment with a 12-h light/12-h dark cycle. A total of 50 mice were assigned to 5 groups by randomization based on body weight.
On Day 0, the mice weighing 18-20 g were anesthetized with […] (Easycheck, M2910). The mice were further intra-rectally injected 100 μL 1.5% TNBS solution (final concentration 50% ethanol) in the vehicle group and other treatment groups. For the Sham group, the mice were intra-rectally injected with 50% ethanol at the same volume.
Mice in Group 1 and Group 2 were treated with vehicle for 8 days (po, qd, from day −1 to day 6). Mice in Group 3 were treated with 50 mg/kg Cpd. 4 for 8 days (preventive regimen, po, qd, from day −1 to day 6). Mice in Group 4 were treated with 50 mg/kg Cpd. 4 for 6 days (therapeutic regimen, po, qd, from day 1 to day 6). 50 mg/kg Mesalamine was used as positive control which was orally administered to mice in Group 5 for 8 days (preventive regimen, qd, from day −1 to day 6). The protocols and procedures involving the care and use of animals were approved by the Institutional Animal Care and Use Committee (IACUC) at WuxiApptec (Shanghai, China).
Clinical signs of IBD were assessed every day based on the score of disease activity index (DAI) which was evaluated from three parameters using a scoring system from 0 to 4: stool consistency (0, normal stool; 1, soft but still formed stool; 2, soft and not formed stool; 3, very soft and wet stool; 4, watery diarrhea), bleeding score (0, negative hemoccult; 1, weak positive hemoccult; 2, positive hemoccult; 3, blood trace in stool visible; 4, gross rectal bleeding) and body weight loss (0, no body weight loos; 1, 1-5% body weight loss; 2, 6-10% body weight loss; 3, 11-20% body weight loss; 4, >20% body weight loss).
At the end of induction with TNBS (day 7), the animals were euthanized, dissected and the entire colon was quickly removed and gently cleared of feces.
The entire colon was weighed, and the total length was measured. Colon weight gain and shortening is an indirect marker of inflammation. As expected, colon weight induced by TNBS increased to 336.8±25.15 mg. […] The TNBS-induced colon weight increasement were improved by Cpd. 4 treatment (202.4±3.95 mg for 50 mg/kg Cpd. 4 preventive therapy and 214.4±5.17 mg for 50 mg/kg Cpd. 4 therapeutic therapy) (FIG. 2).
At the end of induction with TNBS, the animals were euthanized, and blood was collected immediately by the heart punctures and used for whole blood cell analysis.
At the end of the study (day 7), the cell suspensions from sham control, model control and Cpd. 4 therapeutic treatment groups were obtained from mesenteric lymph nodes (MLN). Cells were stained with the following florescence-labelled antibodies: APC-Cy7-conjugated anti-mouse CD45, BV510-conjugated anti-mouse CD3e, AF700-conjugated anti-mouse CD8a, BUV395-conjugated anti-mouse CD4, BV421-conjugated anti-mouse CD25, FITC-conjugated anti-mouse Foxp3, BV650-conjugated anti-mouse IFN-γ, BV786-conjugated anti-mouse IL-17A, BB700-conjugated anti-mouse TNF-α, APC-conjugated anti-mouse B220, BV395-conjugated anti-mouse CD3e, BV605-conjugated anti-mouse CD11b, BB700-conjugated anti-mouse CD11c, AF488-conjugated anti-mouse MHCII, BV421-conjugated anti-mouse NK1.1, BV510-conjugated anti-mouse Ly6G, PE-Cy7-conjugated anti-mouse CD107a and PE-CF594-conjugated anti-mouse F4/80. All cells were primarily gated on single and live lymphocytes based on forward scatter (FCS), side scatter (SSC) and live/dead staining buffer. Samples were analyzed on a flow cytometer (BD LSRFortessa) to count the percentage of each subtype of lymphocytes. […]

[3] = system: IMQ induced psoriasis model; test: IMQ induced psoriasis model in Balb/c mice; details: Cpd. 4 100 mg/kg po qd day 0-6; tofacitinib 30 mg/kg po bid; compared with Vehicle
Description: Imiquimod (IMQ) is a ligand for TLRs (Toll-like receptors) of immune cells (including macrophages, monocytes and plasmacytoid dendritic cells), and therefore contributes to strong activation of the immune system.
Female Balb/c mice (7-8 weeks old) were obtained from B&K Universal Animal Co. Ltd. Animals were housed and handled in a temperature-controlled environment with a 12-h light/12-h dark cycle. A total of 36 mice were assigned to 4 groups by randomization based on body weight (6 mice in normal control group and 10 mice in other 3 groups).
At the beginning of the study on day 0, five groups were administered a daily topical dose of 80 mg of a cream preparation containing 5% IMQ on their hair-free backs to establish a model of IMQ-induced psoriasis for seven consecutive days. The G1 normal control group received appropriate vaseline.
Mice in Group 1 and Group 2 were treated with vehicle for 7 days (po, qd, from day 0 to day 6). Mice in Group 3 were treated with 100 mg/kg Cpd. 4 for 7 days (po, qd, from day 0 to day 6). Mice in Group 4 were treated with 30 mg/kg tofacitinib for 7 days (po, bid, from day 0 to day 6). The protocols and procedures involving the care and use of animals were approved by the Institutional Animal Care and Use Committee (IACUC) at KCI (Suzhou, China).
The severity of skin inflammation was monitored and graded using a modified human scoring system Psoriasis Area Severity Index (PASI). Scaling, thickness, and erythema were scored separately on a scale from 0 to 4:0, none; 1, slight; 2, moderate; 3, marked; and 4, very marked. The total score denotes severity of inflammation. Ear thickness of mice was measured every day from day 0 to day 7.
Ear thickness of mice was measured every day from day 0 to day 7. […] Compared with G1 normal control group, after IMQ treatment, ear swelling was observed indicated by increased ear thickness in G2 group reaching the maximal ear thickness to 0.40±0.02 mm on day 7. Cpd.

[4] = day 15, Cpd. 4 30 and 100 mg/kg po qd, Cpd. X 50 mg/kg iv biw, dexamethasone 3 mg/kg po qd, compared with Vehicle
[5] = Cpd. 4 preventive and therapeutic

## Cc1c(S(C)(=O)=O)c(-c2cc(F)cc(N3CCN(c4ccc(NS(=O)(=O)c5ccc(N[C@H](CCN6CCC(C(=O)O)CC6)CSc6ccccc6)c(S(=O)(=O)C(F)(F)F)c5)cc4)CC3)c2)c(-c2ccc(Cl)cc2)n1C(C)C [Cpd. XI]
[1]
  BALF neutrophils (infiltration in lung): significantly reduced
[1]; listed as Cpd.XI
  BALF neutrophils (infiltration in lung): significantly reducing the BALF neutrophils

## Cc1c(S(C)(=O)=O)c(-c2cc(F)cc(N3CCN(c4ccc(NS(=O)(=O)c5ccc(N[C@H](CCN6CCC(C(=O)OCCCP(=O)(O)O)CC6)CSc6ccccc6)c(S(=O)(=O)C(F)(F)F)c5)cc4)CC3)c2)c(-c2ccc(Cl)cc2)n1C(C)C [Cpd. X]
[1]
  BALF neutrophils (infiltration in lung): significantly reducing the BALF neutrophils; also recorded: significantly reduced
OVA induced asthma model; 50 mg/kg iv biw, day 15, vehicle 4.08±0.23
  pathological score in lung tissues (H&E): 2.58±0.15
OVA induced asthma model; Cpd. 4 and Cpd. X, compared with Vehicle
  pathological score in lung tissues (in words): significantly ameliorated
OVA induced asthma model; [4]
  percentage of eosinophils in BALF: downregulated markedly; also recorded: significantly downregulated
  serum OVA-specific IgE (ELISA): significantly reduced
OVA induced asthma model; methacholine challenge day 13, Cpd. 4 30 and 100 mg/kg po qd day 8-14, Cpd. X 50 mg/kg iv biw, dexamethasone 3 mg/kg po qd, compared with Vehicle
  airway stenosis index (penh), airway hyper-responsiveness (AHR): significant inhibitory activity; also recorded: significantly reduced

## Nc1ccc(O)c(C(=O)O)c1 [mesalamine, Mesalamine, reference compound]
[2]; Cpd. 4 preventive (day −1 to day 6) and therapeutic (day 1 to day 6) regimens
  disease activity index (DAI), clinical score of IBD: significantly lowered DAI
[2]; [5]
  colon length (in words): significantly increased the colon length
  colon weight (in words): significantly reduced the colon weight

## C[C@@H]1CCN(C(=O)CC#N)C[C@@H]1N(C)c1ncnc2[nH]ccc12 [tofacitinib, reference compound]
[3]
  PASI score (Psoriasis Area Severity Index): significantly lower PASI
